Source: US20110046066A1, “INHIBITORS OF IAP” (GENENTECH, INC., priority 2008, published 2011)
Several values for one entry are separate records, joined by “and”; a condition that tells them apart may be missing. Equal entries are not always repeated.

Assays:
C-IAP1 BIR3 = target: T1, C-IAP1 BIR3 (Homo sapiens, UniProt Q13490); assay: Fluorescence polarization peptide binding assay, C-IAP1 BIR3; conditions: for IC50: 0.2 μM C-IAP1 BIR3, 5 nM AVP-diPhe-FAM probe, one hour incubation; for Ki: determined from the IC50 values (procedure of Keating et al.)
T1 construct: 0.2 μM C-IAP1 BIR3
T1 sequence (Q13490 253-363 limits assumed): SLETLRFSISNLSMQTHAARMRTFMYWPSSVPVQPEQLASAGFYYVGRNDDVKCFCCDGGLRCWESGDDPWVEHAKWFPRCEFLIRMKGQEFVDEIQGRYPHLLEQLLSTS
Procedure: (§1) Polarization experiments were performed on an Analyst HT 96-384 reader (Molecular Devices Corp.) in order to determine dissociation constants (Kd) between IAP protein BIR domains and the fluorescent probe. Samples for fluorescence polarization affinity experiments were prepared by addition of serial dilutions of IAP BIR domains (C-IAP1 BIR3, C-IAP-2 BIR3, ML/X-IAP chimera MLXBIR3SG and X-IAP BIR3) in polarization buffer (50 mM Tris [pH 7.2], 120 mM NaCl, 1% bovine globulins 5 mM DTT and 0.05% octylglucoside) to 5-carboxyflourescein-conjugated AVPdi-Phe-NH2 (AVP-diPhe-FAM) at 5 nM final concentration.
(§2) The reactions were read after an incubation time of 1 hour at room temperature with standard cut-off filters for the fluorescein fluorophore (λex=485 nm; λem=530 nm) in 384-well black plates (Molecular Devices Corp.). Fluorescence polarization values were plotted as a function of the protein concentration, and the effective concentration 50 (EC50) values were obtained by fitting the data to a 4-parameter equation using Kaleidagraph software (Synergy software, Reading, Pa.). The apparent Kd values were determined from the EC50 values. Inhibition Constants (Ki values) for the antagonists were determined by the addition of 0.06 μM MLXBIR3SG, 0.5 μM X-IAP BIR3, 0.2 μM C-IAP1 BIR3 or 0.4 μM C-IAP-2 BIR3 to wells containing 5 nM of the AVP-diPhe-FAM probe as well as 1:3 serial dilutions of antagonist compounds starting at a concentration of 200 μM in the polarization buffer. Samples were read after an incubation time of one hour. Fluorescence polarization values were plotted as a function of the antagonist concentration, and the IC50 values were obtained by fitting the data to a 4-parameter equation using Kaleidagraph software (Synergy software, Reading, Pa.). Ki values for the antagonists were determined from the IC50 values according to the procedure of Keating, S. M., Marsters, J, Beresini, M., Ladner, C., Zioncheck, K., Clark, K., Arellano, F., and Bodary, S. (2000) in Proceedings of SPIE: In Vitro Diagnostic Instrumentation (Cohn, G. E., Ed.) pp 128-137, Bellingham, Wash. […] All values are micromolar.

[1] = target: T2, ML/X-IAP chimera MLXBIR3SG (Homo sapiens, UniProt Q96CA5, S150G); assay: Fluorescence polarization peptide binding assay, MLXBIR3SG; conditions: for IC50: 0.06 μM MLXBIR3SG, 5 nM AVP-diPhe-FAM probe, one hour incubation; for Ki: determined from the IC50 values (procedure of Keating et al.)
T2 sequence (Q96CA5 with tags, fused parts or gaps S150G): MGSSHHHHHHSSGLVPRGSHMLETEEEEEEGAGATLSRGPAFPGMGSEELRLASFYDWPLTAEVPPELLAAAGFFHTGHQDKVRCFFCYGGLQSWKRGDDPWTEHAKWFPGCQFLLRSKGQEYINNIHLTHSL
Procedure: The following fluorescence polarization experiments used a chimeric BIR domain referred to as MLXBIR3SG in which 11 of 110 residues correspond to those found in XIAP BIR3, while the remainder correspond to ML-IAP BIR. […] The improved caspase-9 inhibition of the chimeric BIR domain MLXBIR3SG has been correlated with increased inhibition of doxorubicin-induced apoptosis when transfected into MCF7 cells.
as §1, §2

C-IAP2 BIR3 = target: T3, C-IAP2 BIR3 (Homo sapiens, UniProt Q13489); assay: Fluorescence polarization peptide binding assay, C-IAP2 BIR3; conditions: for IC50: 0.4 μM C-IAP-2 BIR3, 5 nM AVP-diPhe-FAM probe, one hour incubation; for Ki: determined from the IC50 values (procedure of Keating et al.)
T3 construct: 0.4 μM C-IAP-2 BIR3
T3 sequence (Q13489 238-349 limits assumed): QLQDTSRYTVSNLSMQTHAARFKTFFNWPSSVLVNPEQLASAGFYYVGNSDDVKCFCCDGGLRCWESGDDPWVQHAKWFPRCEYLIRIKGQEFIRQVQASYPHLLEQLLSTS
Procedure: as §1, §2

X-IAP BIR3 = target: T4, X-IAP BIR3 (Homo sapiens, UniProt P98170); assay: Fluorescence polarization peptide binding assay, X-IAP BIR3; conditions: for IC50: 0.5 μM X-IAP BIR3, 5 nM AVP-diPhe-FAM probe, one hour incubation; for Ki: determined from the IC50 values (procedure of Keating et al.)
T4 construct: 0.5 μM X-IAP BIR3
T4 sequence (P98170 241-356 limits assumed): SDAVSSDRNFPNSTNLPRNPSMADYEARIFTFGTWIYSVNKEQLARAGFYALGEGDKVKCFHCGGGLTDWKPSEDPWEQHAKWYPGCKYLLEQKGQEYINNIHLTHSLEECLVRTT
Procedure: as §1, §2

**Q.** What does the source list for `CN[C@@H](C)C(=O)N[C@H](C(=O)N[C@H](C(=O)Nc1snnc1-c1ccccc1)C(F)(F)F)C1CCCCC1` [Compound 5]?
**A.** IC50 (C-IAP1 BIR3): 2120 nM; Ki (C-IAP1 BIR3): 328 nM; IC50 [1]: 4820 nM; Ki [1]: 1100 nM; IC50 (C-IAP2 BIR3): 3480 nM; Ki (C-IAP2 BIR3): 751 nM; IC50 (X-IAP BIR3): 13500 nM; Ki (X-IAP BIR3): 2410 nM

**Q.** With `CN[C@@H](C)C(=O)N[C@H](C(=O)N[C@H](C(=O)Nc1snnc1-c1ccccc1)C(C)(C)SCNC(C)=O)C1CCCCC1` [Compound 21] as the compound, how does the IC50 (C-IAP1 BIR3) read?
**A.** 202 nM

**Q.** And the Ki (C-IAP1 BIR3)?
**A.** 31 nM

**Q.** What about the IC50 [1] of the same compound?
**A.** 407 nM

**Q.** And the Ki [1]?
**A.** 93 nM

**Q.** What about the IC50 (C-IAP2 BIR3) of the same compound?
**A.** 342 nM

**Q.** What about the Ki (C-IAP2 BIR3) of the same compound?
**A.** 74 nM

**Q.** And the IC50 (X-IAP BIR3)?
**A.** 22400 nM

**Q.** And the Ki (X-IAP BIR3)?
**A.** 3990 nM

**Q.** Which IC50 (C-IAP1 BIR3) does the source give for `CN[C@@H](C)C(=O)N[C@H](C(=O)N(C)[C@H](C(=O)Nc1snnc1-c1ccccc1)C(C)C)C1CCCCC1` [Compound 14] here?
**A.** 140 nM

**Q.** And the Ki (C-IAP1 BIR3)?
**A.** 21.7 nM

**Q.** What about the IC50 [1] of the same compound?
**A.** 250 nM

**Q.** And the Ki [1]?
**A.** 57 nM

**Q.** And the IC50 (C-IAP2 BIR3)?
**A.** 226 nM

**Q.** What about the Ki (C-IAP2 BIR3) of the same compound?
**A.** 48.8 nM

**Q.** What about the IC50 (X-IAP BIR3) of the same compound?
**A.** 26400 nM

**Q.** What about the Ki (X-IAP BIR3) of the same compound?
**A.** 4700 nM

**Q.** Which IC50 (C-IAP1 BIR3) does the source give for `CN[C@@H](C)C(=O)N[C@H](C(=O)N[C@H](C(=O)NCC(c1ccccc1)c1ccccc1)C(C)(C)SCc1ccc(OC)cc1)C1CCCCC1` [Compound 17] here?
**A.** 6410 nM

**Q.** What about the Ki (C-IAP1 BIR3) of the same compound?
**A.** 993 nM

**Q.** What about the IC50 [1] of the same compound?
**A.** 5160 nM

**Q.** What about the Ki [1] of the same compound?
**A.** 1180 nM

**Q.** And the IC50 (C-IAP2 BIR3)?
**A.** 6530 nM

**Q.** What about the Ki (C-IAP2 BIR3) of the same compound?
**A.** 1410 nM

**Q.** What about the IC50 (X-IAP BIR3) of the same compound?
**A.** > 200000 nM

**Q.** And the Ki (X-IAP BIR3)?
**A.** > 35000 nM

**Q.** Which IC50 (C-IAP1 BIR3) does the source give for `CN[C@@H](C)C(=O)N[C@H](C(=O)N(C)[C@H](C(=O)Nc1snnc1-c1ccccc1)C(C)(C)SC)C1CCCCC1` [Compound 23] here?
**A.** 155 nM

**Q.** And the Ki (C-IAP1 BIR3)?
**A.** 24 nM

**Q.** What about the IC50 [1] of the same compound?
**A.** 304 nM

**Q.** What about the Ki [1] of the same compound?
**A.** 69 nM

**Q.** And the IC50 (C-IAP2 BIR3)?
**A.** 276 nM

**Q.** What about the Ki (C-IAP2 BIR3) of the same compound?
**A.** 60 nM

**Q.** And the IC50 (X-IAP BIR3)?
**A.** 14000 nM

**Q.** And the Ki (X-IAP BIR3)?
**A.** 2490 nM

**Q.** How did the IC50 (C-IAP1 BIR3) turn out when `CN[C@@H](C)C(=O)N[C@H](C(=O)N[C@H](C(=O)Nc1snnc1-c1ccccc1)C(C)(C)S(C)(=O)=O)C1CCCCC1` [Compound 10] was run?
**A.** 700 nM

**Q.** What about the Ki (C-IAP1 BIR3) of the same compound?
**A.** 108 nM

**Q.** What about the IC50 [1] of the same compound?
**A.** 2400 nM

**Q.** And the Ki [1]?
**A.** 547 nM

**Q.** What about the IC50 (C-IAP2 BIR3) of the same compound?
**A.** 1130 nM

**Q.** And the Ki (C-IAP2 BIR3)?
**A.** 244 nM

**Q.** And the IC50 (X-IAP BIR3)?
**A.** 36200 nM

**Q.** What about the Ki (X-IAP BIR3) of the same compound?
**A.** 6440 nM

**Q.** `CN[C@@H](C)C(=O)N[C@H](C(=O)N[C@H](C(=O)NCC(c1ccccc1)c1ccccc1)C(C)(C)OC)C1CCOCC1` [Compound 9] was tested. Which IC50 (C-IAP1 BIR3) did it give?
**A.** 5840 nM and 3180 nM

**Q.** What about the Ki (C-IAP1 BIR3) of the same compound?
**A.** 905 nM and 492 nM

**Q.** What about the IC50 (X-IAP BIR3) of the same compound?
**A.** > 200000 nM

**Q.** And the Ki (X-IAP BIR3)?
**A.** > 35000 nM

**Q.** How did the IC50 (C-IAP1 BIR3) turn out when `CN[C@@H](C)C(=O)N[C@H](C(=O)N(C)[C@H](C(=O)Nc1ccccc1-c1ncccn1)C(C)C)C1CCCCC1` [Compound 7] was run?
**A.** 14200 nM

**Q.** What about the Ki (C-IAP1 BIR3) of the same compound?
**A.** 3120 nM

**Q.** And the IC50 [1]?
**A.** > 200000 nM

**Q.** What about the Ki [1] of the same compound?
**A.** > 46000 nM

**Q.** And the IC50 (C-IAP2 BIR3)?
**A.** 27000 nM

**Q.** And the Ki (C-IAP2 BIR3)?
**A.** 4570 nM

**Q.** What about the IC50 (X-IAP BIR3) of the same compound?
**A.** > 200000 nM

**Q.** What about the Ki (X-IAP BIR3) of the same compound?
**A.** > 35000 nM

**Q.** Which results are given for `CN[C@@H](C)C(=O)N[C@H](C(=O)N[C@H](C(=O)NCC(c1ccccc1)c1ccccc1)C(C)(C)SC)C1CCCCC1` [Compound 13]?
**A.** IC50 (C-IAP1 BIR3): 3890 nM; Ki (C-IAP1 BIR3): 602 nM; IC50 [1]: 4220 nM; Ki [1]: 963 nM; IC50 (C-IAP2 BIR3): 6250 nM; Ki (C-IAP2 BIR3): 1350 nM; IC50 (X-IAP BIR3): > 200000 nM; Ki (X-IAP BIR3): > 35000 nM

**Q.** Which results are given for `CN[C@H](C)C(=O)N[C@@H](C(=O)N[C@@H](C(=O)NCC(c1ccccc1)c1ccccc1)C(C)(C)C)C1CCCCC1` [Compound 15]?
**A.** IC50 (C-IAP1 BIR3): 3640 nM; Ki (C-IAP1 BIR3): 564 nM; IC50 [1]: 2900 nM; Ki [1]: 661 nM; IC50 (C-IAP2 BIR3): 7570 nM; Ki (C-IAP2 BIR3): 1630 nM; IC50 (X-IAP BIR3): > 200000 nM; Ki (X-IAP BIR3): > 35000 nM

**Q.** What does the source list for `CN[C@@H](C)C(=O)N[C@H](C(=O)N(C)[C@H](C(=O)Nc1snnc1-c1ccccc1)C(C)(C)C)C1CCCCC1` [Compound 24, (S)-2-((S)-2-cyclohexyl-N-methyl-2-((S)-2-(methylamino)propan-amido)acetamido)-3,3-dimethyl-N-(4-phenyl-1,2,3-thiadiazol-5-yl)butanamide]?
**A.** IC50 (C-IAP1 BIR3): 1320 nM; Ki (C-IAP1 BIR3): 205 nM; IC50 [1]: 4080 nM; Ki [1]: 929 nM; IC50 (C-IAP2 BIR3): 1320 nM; Ki (C-IAP2 BIR3): 285 nM; IC50 (X-IAP BIR3): > 200000 nM; Ki (X-IAP BIR3): > 35000 nM
